One experiment has as its target T1, MKP3 E81G (Homo sapiens, UniProt Q16828, E81G).
T1 construct: MKP3(1–381) (MKP3^FL); made in house; host or cells: Escherichia coli BL21(DE3)
T1 sequence (Q16828 1-381 E81G): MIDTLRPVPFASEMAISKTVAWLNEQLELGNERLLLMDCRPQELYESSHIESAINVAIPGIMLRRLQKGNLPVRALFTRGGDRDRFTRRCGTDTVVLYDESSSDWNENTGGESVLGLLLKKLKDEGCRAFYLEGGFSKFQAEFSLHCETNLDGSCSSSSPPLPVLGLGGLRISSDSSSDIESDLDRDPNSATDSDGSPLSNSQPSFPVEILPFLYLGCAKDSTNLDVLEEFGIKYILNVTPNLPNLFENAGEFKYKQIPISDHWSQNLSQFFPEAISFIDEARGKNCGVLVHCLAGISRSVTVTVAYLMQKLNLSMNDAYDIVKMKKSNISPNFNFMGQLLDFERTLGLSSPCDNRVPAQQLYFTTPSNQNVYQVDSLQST
Description: MST affinity of MKP3 mutant. Format: binding. The conditions noted are these: full-length mutant. The protocol:
(§1) MST measurements were performed using fluorescently labeled proteins and the inhibitor BCI (CAS: 1245792-51-1; TargetMol) on a Monolith instrument (NanoTemper Technologies). The RED–Tris–NTA second-generation dye was dissolved in MST buffer (20 mM Hepes, pH 7.4, 200 mM NaCl, and 0.05% Tween-20) to prepare a 5 μM stock solution. Fluorescent labeling of MKP proteins followed the standard protocol of the MO-L018 RED–Tris–NTA protein labeling kit, leveraging the His-tag–dye interaction.
(§2) The BCI compound was prepared as a 600 to 750 μM stock solution in MST buffer with 10% DMSO to enhance solubility, followed by a 16-point serial dilution. The diluted BCI solutions were thoroughly mixed with labeled MKP proteins (50 nM) at a 1:1 volume ratio, yielding a final volume of 10 μl. The reaction mixtures were incubated in the dark for 10 min at room temperature before being loaded into standard glass capillaries. Measurements were carried out on the Monolith instrument (100% LED, 40% IR laser power) with a 20 s laser on time. The normalized fluorescence values from triplicate measurements were averaged at each concentration and fitted to a 1:1 binding model using the KD model in MO.Affinity software (v3.0.5, NanoTemper Technologies) to determine the binding affinities between MKP proteins and the BCI inhibitor. The final reported Kd value represents the mean ± SD of Kd values obtained from three independent experiments, each fitted separately.
(§3) Figure S3. Affinity measurements of MKP3 mutants with BCI by MST. The binding affinities of full-length MKP3 mutants (E81G, R83G, R85G, R87G, and R89A) to BCI were determined by MST and are presented as mean ± SD (n = 3). Wild-type MKP3 (MKP3^WT) was included as a reference.

Another experiment has as its target T2, MKP3 R85G (Homo sapiens, UniProt Q16828, R85G).
T2 construct: MKP3(1–381) (MKP3^FL); made in house; host or cells: Escherichia coli BL21(DE3)
T2 sequence (Q16828 1-381 R85G): T1 sequence (Q16828 1-381 E81G) with G81E, R85G
Put plainly: MST affinity of MKP3 mutant. The conditions noted are these: full-length mutant. The class given is binding. The protocol: as §1, §2, §3

For another experiment, the target named is T3, MKP3 R89A (Homo sapiens, UniProt Q16828, R89A).
T3 construct: MKP3(1–381) (MKP3^FL); made in house; host or cells: Escherichia coli BL21(DE3)
T3 sequence (Q16828 1-381 R89A): T1 sequence (Q16828 1-381 E81G) with G81E, R89A
Put plainly: MST affinity of MKP3 mutant. Format: binding. Conditions: full-length mutant. The protocol:
as §1, §2, §3

A further experiment has as its system MKP3. Conditions: cited from earlier work.

Each structure is given as a SMILES string. Where a chain is given by its changes, count along the chain named.

With `O=C1/C(=C/c2ccccc2)C(NC2CCCCC2)c2ccccc21` (centres unmarked) [BCI, (E)-2-benzylidene-3-(cyclohexylamino)-2,3-dihydro-1H-inden-1-one], the results for the “affinity for BCI compared with MKP3^WT” value on MKP3 E81G, at MKP3 R85G and on MKP3 R89A were “significantly reduced affinity”, “affinities similar to the WT” and “significantly reduced affinity”, respectively. In addition, the “effect on ERK2-mediated MKP3 activity” value in the experiment on MKP3 (ERK2-stimulated, OMFP substrate) is recorded as “inhibits”. The “effect on MKP3's basal activity toward OMFP” value in the experiment with MKP3 (basal, without ERK2) is “does not affect”.

The record behind these values is PMC12444472, “BCI inhibits MKP3 by targeting the kinase-binding domain and disrupting ERK2 interaction” (The Journal of Biological Chemistry, 2025).
